Results: US6596257B2, “Detection and visualization of neoplastic tissues and other tissues” (Prolume, Ltd., priority 1996, dated 2003)

Key:
[1] = format: physicochemical
Excerpt: Coelenterazine is not terribly soluble in non-irritant vehicles. Coelenterazine is soluble to at least to a concentration of 200 micrograms/mL in a solution of 2% (w/v) PEG 400 containing about 0.8% (w/v) NaCl. Although this solution is slightly hypertonic, it is not an irritant for vehicle purposes.

[2] = system: mice; assay: Repeated administration toxicology: gross signs of toxicity in behavior; format: in vivo, mouse; conditions: 1 mg/kg i.p., daily administration for three days, n=6
Excerpt: […] Mice are examined over the course of the study for any gross signs of toxicity as evidenced in their behavior. At the end of the one-week period, blood which is collected by cardiac puncture immediately prior to sacrifice. Animals are sacrificed and ten different tissue samples are removed post mortem from each animal. Isolated tissues are fixed, stained, blocked and sectioned. The pathology of the tissue samples will be analyzed and the toxicology data are compiled.

solubility (soluble to at least a concentration of) [1]: ≥ 200 micrograms/mL
Substance: coelenterazine
gross behavior changes [2]: no gross behavior changes
